Here are results for seven molecules from BindingDB's records for doi:10.1021/jm00031a001 (Fisons, 1994).

Assay [1] deals with Phospholipase A2 group IB (pancreatic, Sus scrofa). The assay can be described thus: In vitro activity against porcine pancreatic phospholipase-A2 (PLA2) and monomerically dispersed substrate.
The target of assay [2] is Phospholipase A2 group IB (Sus scrofa). The assay can be described thus: In vitro activity against porcine pancreatic phospholipase-A2 (PLA2) and micellar substrate with deoxycholate (DOC).

For the molecule `CCCCCC/C=C/CC(=O)N[C@H](CSc1ccc2ccccc2c1)CC(=O)O` [(S)-3-((S)-(E)-Dec-3-enoylamino)-4-(naphthalen-2-ylsulfanyl)-butyric acid], the IC50 was found to be 23 nM in assay [1] and 790 nM in assay [2].

In the case of `CCCCCC/C=C/CC(=O)N[C@H](CSc1ccccc1)CC(=O)O` [(S)-3-((S)-(E)-Dec-3-enoylamino)-4-phenylsulfanyl-butyric acid], the results for the IC50 in assay [1] and in assay [2] were 95 nM and 2200 nM, respectively.

`CCCCCCCCCCCCCCCC(=O)N[C@@H](CC(=O)O)CC(C)C` [(R)-3-((S)-Hexadecanoylamino)-5-methyl-hexanoic acid]: the results for the IC50 in assay [1] and in assay [2] were 190 nM and 7300 nM, respectively.

With `CCCCCCCCCCCCCCCC(=O)N[C@@H](CCCC(=O)O)CC(C)C` [(S)-5-((S)-Hexadecanoylamino)-7-methyl-octanoic acid], the IC50 is 1300 nM in assay [1] and 19000 nM in assay [2].

Consider `CCCCCCCCCCCCCCCC(=O)N[C@@H](CCC(=O)O)CC(C)C` [(S)-4-((S)-Hexadecanoylamino)-6-methyl-heptanoic acid], for which the results for the IC50 in assay [1] and in assay [2] were 200 nM and 4500 nM, respectively.

With `CCCCCCCCCC(=O)N[C@@H](CC(=O)O)CC(C)C` [(R)-3-((S)-Decanoylamino)-5-methyl-hexanoic acid], the values for the half-maximal inhibitory concentration (IC50) in assay [1] and in assay [2] were 1400 nM and 15000 nM, respectively.

As to `CCCCCC/C=C/CC(=O)N[C@@H](CC(=O)O)CC(C)C` [(R)-3-((S)-(E)-Dec-3-enoylamino)-5-methyl-hexanoic acid], the IC50 amounted to 300 nM in assay [1] and 8500 nM in assay [2].
